According to patent publication US20220331348A1, “METHOD OF PREPARING PENTACYCLIC TRITERPENOID SAPONINS AND DRUG COMPOSITION” (CHINA PHARMACEUTICAL UNIVERSITY, priority 2019, published 2022):

Key:
[1] = test system: human ADPKD cyst lining epithelial cell lines WT9-12; assay: Proliferation of polycystic kidney epithelial cells (CCK-8 method); type: cell-based; conditions: Homo sapiens, Epithelial cell, 48 h; for inhibition at 10 µM: polycystic kidney epithelial cells, CCK-8, n = 6, read-out: Inhibition rate (%)
Description: Cell and reagent: complete media for human ADPKD cyst lining epithelial cell lines WT9-12 and DMEM were purchased from ATCC Company; fetal calf serums were purchased from Gibco Company; Cell Counting Kit-8 was purchased from DOJINDO Company; Click-iT® EdU Imaging Kits were purchased from Invitrogen™ Thermo Fisher Scientific Company; Caspase -3/CPP32 Colorimetric Assay Kit was purchased from BioVision Company; Annexin V/PI double-staining flow type cell apoptosis detection kits were purchased from Bender Company; and anti-Phospho-(AMPKa, mTOR, p70S6K, 4E-BP1) antibodies were purchased from Cell Signaling Technology Company.
The influence of 2-DG on proliferation of the polycystic kidney epithelial cells was detected with a CCK-8 method: a DMEM complete medium containing 10% fetal calf serum (FBS) was prepared. The polycystic kidney epithelial cells were cultured in an incubator with 5% CO2 at 37° C. after being recovered, a solution was replaced every other day, the polycystic kidney epithelial cells were passaged every 2-3 days, and the cells were in a growing state of adhering to the wall. After trypsin enzyme digestion, cells were resuspended by using a complete medium, the concentration of a polycystic kidney epithelial cell suspension was regulated to be 3×10^7/L, the polycystic kidney epithelial cell suspension was inoculated to 96-well plate by […] per well for culture for 24 h, and the suspension was replaced by a culture medium containing 0.1% FBS for synchronization for 24 h.

[2] = test system: ulcerative colitis model mice induced by DSS; assay: Dextran sulphate sodium salt (DSS) induced ulcerative colitis model mice; type: in vivo, mouse; conditions: for DAI scores of the treatment group: DSS-induced mice, dose not given, vs model group
Procedure: C57BL/6 male mice with 6-8 weeks old were selected; a control group was fed with purified water; and a model group, a treatment group and a positive control group were fed with purified water containing 2% dextran sulphate sodium salt (DSS) (36000-50000 M.Wt) for 7 days and then with the purified water for 3 days, and drug intervention was conducted at the same time. The mice in the control group and the model group were orally administered with carboxymethyl cellulose sodium as a placebo, the mice in the treatment group were orally administered with the ziyuglycoside II (purchased from Shanghai Boka Chemistry Technology Co., Ltd) (with a dosage of 5 mg/kg), and the mice in the positive control group were orally administered with 5-aminosalicylic acid as a clinical drug (5-ASA, purchased from Shanghai Sangon Biological Engineering Co., Ltd) (with a dosage of 100 mg/kg). In the administration process, weight changes, feces characters and hematochezia conditions of the mice were observed and recorded every day and were scored, and disease activity indexes were calculated (Disease activity index, DAI).
A scoring rule and a calculation method were as follows: DAT=(weight score+diarrhea score+occult blood score)/3, wherein weight score: 0 (weight gained or unchanged), 1 (weight lost by 1-5%), 2 (weight lost by 6-10%), 3 (weight lost by 11-15%), 4 (weight lost by 15% or above); diarrhea score: 0 (normal feces), 2 (soft feces), 4 (feces sticking anuses or diarrhea); and occult blood score: 0 (negative occult blood), 2 (positive occult blood), and 4 (visible bleeding). Comparing differences in DAI of various groups, it can be known that the ziyuglycoside II has significant prevention and treatment effects on ulcerative colitis of the mice modeled by the dextran sulphate sodium salt (DSS).
The above mice were sacrificed by cervical dislocation at day 11, colon tissues were harvested, lengths of the colon tissues were measured for statistical summary, and differences in colon length of various groups were compared, from which, the ziyuglycoside II has significant prevention and treatment effect on the ulcerative colitis model mice.
Middle segments, with lengths of about 1 cm, of the colon tissues of the above mice were selected, soaked in a formalin solution for fixing overnight, embedded with paraffin and sliced, and the slices were subjected to HE staining. […] Particularly, compared with the positive drug group, the ziyuglycoside II has the advantage of maintaining a thickness of a muscular layer.
10 mg of proximal rectum segments of the colon tissues of the above mice were selected, PBS was added for homogenization, and centrifugation was conducted for taking a supernate. The supernate was subjected to ELISA detection, and protein quantification was conducted for inflammatory factors TNF-α and IL-lb.
10 mg of colon tissues of the above mice were selected for detection of ROS therein.
When the ulcerative colitis occurs, the inflammatory factors may destruct tight junction between intestinal tracts, and destruction of the tight junction enables functions of mucosal barriers to be lost and accelerates development of the diseases. 5 mg of colon tissues of the above mice were selected for qPCR analysis. […] This hints that the ziyuglycoside II further has the efficacy of increasing the expression level of the tight junction and then protecting a structure of each colon. […] Therefore, the ziyuglycoside II is expected to be useful for preparing the drug for preventing or treating the inflammatory bowel diseases such as the ulcerative colitis.

[3] = test system: TNBS modeled Crohn's disease model mice; assay: 2,4,6-trinitrobenzene sulfonic acid (TNBS) modeled Crohn's disease model mice; type: in vivo, mouse; conditions: for colon length of the treatment group compared with the control group / expression level of inflammatory factor IL-1β / expression level of inflammatory factor TNF-α: dose not given; for expression level of inflammatory factor IL-1β / expression level of inflammatory factor TNF-α: vs model group
Procedure: C57BL/6 male mice with 6-8 weeks old were selected and randomly divided into a control group, a mode group, a treatment group and a positive control group. Expect for the control group, after the mice in the rest groups anesthetized with isoflurane, hoses were carefully inserted into colons of the mice from anuses, and […] of 1.5% 2,4,6-trinitrobenzene sulfonic acid (TNBS) was slowly injected. Before the hoses were pulled out, the mice were placed upside down for 1 min. First intragastric administration was conducted at the day of enema treatment, the mice in the control group and the model group were orally administered with carboxymethyl cellulose sodium as a placebo, the mice in the treatment group were orally administered with the ziyuglycoside II (purchased from Shanghai Boka Chemistry Technology Co., Ltd) (with a dosage of 5 mg/kg), and the mice in the positive drug group were orally administered with 5-aminosalicylic acid as a clinical drug (5-ASA, purchased from Shanghai Sangon Biological Engineering Co., Ltd) (with a dosage of 100 mg/kg). Administration was continuously conducted for 7 days. In the administration process, the states of the mice were observed every day, and weight changes of the mice were recorded.
Differences in weight change of the mice in various groups were compared, from which, ziyuglycoside II has the treatment effect on the 2, 4, 6-trinitrobenzene sulfonic acid (TNBS) modeled Crohn's disease model mice.
The above mice were sacrificed by cervical dislocation at day 8, colon tissues were harvested, lengths of the colon tissues were measured for statistical summary, and differences in colon length of various groups were compared, from which, the ziyuglycoside II has significant treatment effect on the Crohn's disease model mice. […] 10 mg of proximal rectum segments of the colon tissues of the above mice were selected, PBS was added for homogenization, and centrifugation was conducted for taking a supernate. The supernate was subjected to ELISA detection, and protein quantification was conducted for inflammatory factors TNF- and IL-1. […] Myeloperoxidase (MPO) is an enzyme specific to neutrophils, and the amount of the neutrophils in the intestinal tracts may be reflected by detecting the MPO level. 5 mg of proximal rectum segments of the colon tissues of the above mice were selected, PBS was added for homogenization, and the content of the MPO in a homogenate was detected with a MPO kit (purchased from Nanjing Jiancheng Bioengineering Institute). […] Therefore, the ziyuglycoside II is expected to be useful for preparing the drug for preventing or treating the inflammatory bowel diseases such as the Crohn's disease.

[4] = DSS mice, 5 mg/kg orally, vs model group (FIG. 12 A)
[5] = DSS mice, 5 mg/kg, vs model group (FIG. 12 C)
[6] = 5 mg/kg orally, vs model group (FIG. 14 A)

SMILES | inhibition at 10 µM [1] [%] | content of the ROS in colon tissues ([2]; DSS mice, 5 mg/kg (FIG. 12 B)) | colon histopathology (HE staining) ([2]; DSS mice, 5 mg/kg orally (FIG. 11)) | colon lengths ([2]; DSS mice, 5 mg/kg orally, day 11, vs model group (FIG. 10 B)) | DAI scores (disease activity index) ([2]; DSS mice, 5 mg/kg orally, vs model group (FIG. 10 A)) | expression level of inflammatory factor IL-1 in colon tissue (ELISA) [2, 4] | expression level of inflammatory factor TNF-α in colon tissue (ELISA) [2, 4] | expression level of Claudin-1 in colon (qPCR) [2, 5] | expression level of Occludin in colon (qPCR) [2, 5] | expression level of ZO-1 in colon (qPCR) [2, 5] | DAI scores of the treatment group [2] | content of the MPO in colon tissues ([3]; 5 mg/kg (FIG. 14 B)) | drop scope of weight loss ([3]; 5 mg/kg orally, 7 days, vs model group (FIG. 13 A)) | colon lengths ([3]; 5 mg/kg orally, day 8, vs model group (FIG. 13 B)) | expression level of inflammatory factor IL-1 in colon tissue (ELISA) [3, 6] | expression level of inflammatory factor TNF- in colon tissue (ELISA) [3, 6] | colon length of the treatment group compared with the control group [3] | expression level of inflammatory factor IL-1β [3] | expression level of inflammatory factor TNF-α [3] | IC50 ([1]; WT9-12 cells, CCK-8 (FIG. 15), read-out: median inhibitory concentration (IC50), proliferation of the polycystic kidney epithelial cells) [µM]
C[C@@H]1CC[C@]2(C(=O)O)CC[C@]3(C)C(=CC[C@@H]4[C@@]5(C)CC[C@H](O[C@@H]6OC[C@H](O)[C@H](O)[C@H]6O)C(C)(C)[C@@H]5CC[C@]43C)[C@@H]2[C@]1(C)O [(XIII), ziyuglycoside II] | 72.1 ± 2 | significantly lowered | infiltration of the inflammatory cells is reduced | significantly larger than those of the model group | obviously lower than that of the model group | significantly lower than those of the model group | significantly lower than those of the model group | significantly increased | significantly increased | significantly increased | obviously lower than those of the model group | significantly lowered | obviously lower than that of the model group | significantly larger than those of the model group | significantly lower than those of the model group | significantly lower than those of the model group | nearly no difference | significantly lower than those of the model group | significantly lower than those of the model group | 
C[C@H]1O[C@@H](O[C@H]2CC[C@@]3(C)[C@@H](CC[C@]4(C)[C@@H]3C=C[C@]35OC[C@@]6(CCC(C)(C)C[C@H]63)[C@H](O)C[C@]54C)[C@]2(C)CO)[C@H](O)[C@@H](O[C@@H]2O[C@H](CO)[C@@H](O)[C@H](O)[C@H]2O)[C@H]1O [(VIII), saikosaponin D] |  |  |  |  |  |  |  |  |  |  | obviously lower than those of the model group |  |  |  |  |  | nearly no difference | significantly lower than those of the model group | significantly lower than those of the model group | 
CC1(C)CC[C@]2(C(=O)O[C@@H]3O[C@H](CO)[C@@H](O)[C@H](O)[C@H]3O)CC[C@]3(C)C(=CC[C@@H]4[C@@]5(C)CC[C@H](O[C@@H]6O[C@H](C(=O)O)[C@@H](O)[C@H](O)[C@H]6O[C@@H]6O[C@H](CO)[C@@H](O)[C@H](O)[C@H]6O)C(C)(C)[C@@H]5CC[C@]43C)[C@@H]2C1 [(I), ginsenoside Ro] | 74.4 ± 2.3 |  |  |  |  |  |  |  |  |  | obviously lower than those of the model group |  |  |  |  |  | nearly no difference | significantly lower than those of the model group | significantly lower than those of the model group | 
C[C@H]1O[C@@H](O[C@H]2CC[C@@]3(C)[C@@H](CC[C@]4(C)[C@@H]3C=C[C@]35OC[C@@]6(CCC(C)(C)C[C@H]63)[C@@H](O)C[C@]54C)[C@]2(C)CO)[C@H](O)[C@@H](O[C@@H]2O[C@H](CO)[C@@H](O)[C@H](O)[C@H]2O)[C@H]1O [(VII), saikosaponin A] |  |  |  |  |  |  |  |  |  |  | obviously lower than those of the model group |  |  |  |  |  | nearly no difference | significantly lower than those of the model group | significantly lower than those of the model group | 
CC1(C)CC[C@]2(C(=O)O[C@@H]3O[C@H](CO[C@@H]4O[C@H](CO)[C@@H](O)[C@H](O)[C@H]4O)[C@@H](O)[C@H](O)[C@H]3O)CC[C@]3(C)C(=CC[C@@H]4[C@@]5(C)CC[C@H](O[C@@H]6OC[C@H](O)[C@H](O)[C@H]6O)[C@@](C)(CO)[C@@H]5CC[C@]43C)[C@@H]2C1 [(II), asperosaponin VI] |  |  |  |  |  |  |  |  |  |  | obviously lower than those of the model group |  |  |  |  |  | nearly no difference | significantly lower than those of the model group | significantly lower than those of the model group | 3.2
C[C@@H]1O[C@@H](O[C@H]2[C@H](O[C@H]3CC[C@@]4(C)[C@@H](CC[C@]5(C)[C@@H]4CC=C4[C@@H]6CC(C)(C)CC[C@]6(C(=O)O)CC[C@]45C)[C@]3(C)CO)OC[C@H](O)[C@@H]2O)[C@H](O)[C@H](O)[C@H]1O [(X), α-hederin] | 80.5 ± 3.2 |  |  |  |  |  |  |  |  |  | obviously lower than those of the model group |  |  |  |  |  | nearly no difference | significantly lower than those of the model group | significantly lower than those of the model group | 
